Results reported in US8877748B2, “Heterocyclic fused anthraquinone derivatives, manufacturing method and pharmaceutical composition using thereof” (National Defense Medical Center, priority 2012, dated 2014).

Key:
[1] = test system: PC-3 prostate cancer cell line; test: SRB assay cell viability, PC-3 prostate cancer cell line; assay type: cell-based, human; details: PC-3 prostate cancer cell line, Table II prints no unit, μM printed, read-out: SRB assay: 50% inhibition of cancer cell proliferation of sample concentration (IC50) of PC-3 prostate cancer cell line
[2] = test system: HOP-62; test: NCI one-dose screening, non-small cell lung cancer HOP-62; assay type: cell-based, human; details: 10 μM
[3] = test system: RXF, 393; test: NCI one-dose screening, renal cancer RXF, 393; assay type: cell-based, human; details: 10 μM
[4] = NCI one-dose screening, renal cancer A489; assay type: cell-based, human; details: 10 μM
[5] = test system: SF-295; test: NCI one-dose screening, CNS cancer SF-295; assay type: cell-based, human; details: 10 μM
[6] = test system: DU145; test: NCI one-dose screening, prostate cancer DU145; assay type: cell-based, human; details: 10 μM
[7] = test system: SNB-19; test: NCI one-dose screening, CNS cancer SNB-19; assay type: cell-based, human; details: 10 μM
[8] = test system: PRMI-8226 cell line; test: NCI one-dose screening, leukemia PRMI-8226; assay type: cell-based, human; details: 10 μM
[9] = test system: UACC-62; test: NCI one-dose screening, melanoma UACC-62; assay type: cell-based, human; details: 10 μM
[10] = test system: SNB-75; test: NCI one-dose screening, CNS cancer SNB-75; assay type: cell-based, human; details: 10 μM
[11] = test system: SR; test: NCI one-dose screening, leukemia SR; assay type: cell-based, human; details: 10 μM
[12] = test system: SK-MEL-2; test: NCI one-dose screening, melanoma SK-MEL-2; assay type: cell-based, human; details: 10 μM
[13] = test system: SF-539; test: NCI one-dose screening, CNS cancer SF-539; assay type: cell-based, human; details: 10 μM
[14] = test system: MALME-3M; test: NCI one-dose screening, melanoma MALME-3M; assay type: cell-based, human; details: 10 μM
[15] = test system: MDA, -MB-435; test: NCI one-dose screening, breast cancer MDA, -MB-435; assay type: cell-based, human; details: 10 μM; listed under Melanoma
[16] = test system: KM12; test: NCI one-dose screening, colon cancer KM12; assay type: cell-based, human; details: 10 μM
[17] = test system: HS 578-T; test: NCI one-dose screening, breast cancer HS 578-T; assay type: cell-based, human; details: 10 μM; Breast cancer
[18] = test system: MCF7; test: NCI one-dose screening, breast cancer MCF7; assay type: cell-based, human; details: 10 μM
[19] = test system: OVCAR-8; test: NCI one-dose screening, ovarian cancer OVCAR-8; assay type: cell-based, human; details: 10 μM
[20] = test system: UACC-257; test: NCI one-dose screening, melanoma UACC-257; assay type: cell-based, human; details: 10 μM
[21] = test system: UO-31; test: NCI one-dose screening, renal cancer UO-31; assay type: cell-based, human; details: 10 μM
[22] = test system: 786-O; test: NCI one-dose screening, renal cancer 786-O; assay type: cell-based, human; details: 10 μM
[23] = test system: SN12C; test: NCI one-dose screening, renal cancer SN12C; assay type: cell-based, human; details: 10 μM
[24] = test system: NCI-H23; test: NCI one-dose screening, non-small cell lung cancer NCI-H23; assay type: cell-based, human; details: 10 μM
[25] = test system: IGROV1; test: NCI one-dose screening, ovarian cancer IGROV1; assay type: cell-based, human; details: 10 μM
[26] = test system: NCI-H322M; test: NCI one-dose screening, non-small cell lung cancer NCI-H322M; assay type: cell-based, human; details: 10 μM; Non-small cell lung cancer
[27] = test system: HOP-92; test: NCI one-dose screening, non-small cell lung cancer HOP-92; assay type: cell-based, human; details: 10 μM
[28] = test system: CAKI-1; test: NCI one-dose screening, renal cancer CAKI-1; assay type: cell-based, human; details: 10 μM
[29] = test system: NCI-H460; test: NCI one-dose screening, non-small cell lung cancer NCI-H460; assay type: cell-based, human; details: 10 μM
[30] = test system: M14; test: NCI one-dose screening, melanoma M14; assay type: cell-based, human; details: 10 μM
[31] = test system: COLO 205; test: NCI one-dose screening, colon cancer COLO 205; assay type: cell-based, human; details: 10 μM
[32] = test system: NCl/ADR-RES; test: NCI one-dose screening, breast cancer NCl/ADR-RES; assay type: cell-based, human; details: 10 μM; listed under Ovarian cancer
[33] = test system: ACHN; test: NCI one-dose screening, renal cancer ACHN; assay type: cell-based, human; details: 10 μM
[34] = test system: HCC-2998; test: NCI one-dose screening, colon cancer HCC-2998; assay type: cell-based, human; details: 10 μM
[35] = test system: K562cell line; test: NCI one-dose screening, leukemia K562; assay type: cell-based, human; details: 10 μM
[36] = test system: HL-60, TB; test: NCI one-dose screening, leukemia HL-60, TB; assay type: cell-based, human; details: 10 μM
[37] = test system: OVCAR-3; test: NCI one-dose screening, ovarian cancer OVCAR-3; assay type: cell-based, human; details: 10 μM
[38] = test system: A549/ATCC; test: NCI one-dose screening, non-small cell lung cancer A549/ATCC; assay type: cell-based, human; details: 10 μM
[39] = test system: HCT-15; test: NCI one-dose screening, colon cancer HCT-15; assay type: cell-based, human; details: 10 μM
[40] = test system: HCT-116; test: NCI one-dose screening, colon cancer HCT-116; assay type: cell-based, human; details: 10 μM
[41] = test system: MDA-MB-231/ATCC; test: NCI one-dose screening, breast cancer MDA-MB-231/ATCC; assay type: cell-based, human; details: 10 μM
[42] = test system: SK-MEL-28; test: NCI one-dose screening, melanoma SK-MEL-28; assay type: cell-based, human; details: 10 μM
[43] = test system: U251; test: NCI one-dose screening, CNS cancer U251; assay type: cell-based, human; details: 10 μM
[44] = test system: OVCAR-4; test: NCI one-dose screening, ovarian cancer OVCAR-4; assay type: cell-based, human; details: 10 μM
[45] = test system: CCRF-CEM; test: NCI screening platform one-dose single concentration screening, leukemia CCRF-CEM; assay type: cell-based, human; details: 10 μM
[46] = test system: MOLT-4; test: NCI one-dose screening, leukemia MOLT-4; assay type: cell-based, human; details: 10 μM
[47] = test system: SK-OV-3; test: NCI one-dose screening, ovarian cancer SK-OV-3; assay type: cell-based, human; details: 10 μM
[48] = test system: SF-268; test: NCI one-dose screening, CNS cancer SF-268; assay type: cell-based, human; details: 10 μM
[49] = test system: SK-MEL-5; test: NCI one-dose screening, melanoma SK-MEL-5; assay type: cell-based, human; details: 10 μM
[50] = test system: MDA-MB-468; test: NCI one-dose screening, breast cancer MDA-MB-468; assay type: cell-based, human; details: 10 μM
[51] = test system: human tumor cell lines; test: NCI one-dose screening, Mean / Delta / Range of growth percent over all tested cell lines; assay type: cell-based; details: 10 μM
[52] = test system: HT29; test: NCI one-dose screening, colon cancer HT29; assay type: cell-based, human; details: 10 μM
[53] = test system: T-47D; test: NCI one-dose screening, breast cancer T-47D; assay type: cell-based, human; details: 10 μM
[54] = test system: NCI-H522; test: NCI one-dose screening, non-small cell lung cancer NCI-H522; assay type: cell-based, human; details: 10 μM
[55] = test system: TK-10; test: NCI one-dose screening, renal cancer TK-10; assay type: cell-based, human; details: 10 μM
[56] = test system: OVCAR-5; test: NCI one-dose screening, ovarian cancer OVCAR-5; assay type: cell-based, human; details: 10 μM
[57] = test system: LOX IMVI; test: NCI one-dose screening, melanoma LOX IMVI; assay type: cell-based, human; details: 10 μM

O=C1c2ccccc2C(=O)c2c1ccc1nsnc21 [C1, Anthraquinone[2,1-c][1,2,5]thiadiazol-6,11-dione]
IC50 [1]: 2.5 µM | Growth Percent HOP-62 [2]: 103.18% | Growth Percent RXF 393 [3]: 20.11% | Growth Percent A498 [4]: 130.09% | Growth Percent SF-295 [5]: 126.17% | Growth Percent DU145 [6]: 40.76% | Growth Percent SNB-19 [7]: 78.98% | Growth Percent RPMI-8226 [8]: −27.97% | Growth Percent UACC-62 [9]: −82.32% | Growth Percent SNB-75 [10]: 79.03% | Growth Percent SR [11]: 4.96% | Growth Percent SK-MEL-2 [12]: −73.16% | Growth Percent SF-539 [13]: −47.11% | Growth Percent MALME-3M [14]: −71.64% | Growth Percent MDA-MB-435 [15]: −87.88% | Growth Percent KM12 [16]: 98.60% | Growth Percent HS 578T [17]: 7.40% | Growth Percent MCF7 [18]: −50.74% | Growth Percent OVCAR-8 [19]: −10.07% | Growth Percent UACC-257 [20]: −83.07% | Growth Percent UO-31 [21]: −79.30% | Growth Percent 786-0 [22]: −25.98% | Growth Percent SN12C [23]: −73.27% | Growth Percent NCI-H23 [24]: 97.80% | Growth Percent IGROV1 [25]: −88.34% | Growth Percent NCI-H322M [26]: 16.07% | Growth Percent HOP-92 [27]: −100.00% | Growth Percent CAKI-1 [28]: 1.97% | Growth Percent NCI-H460 [29]: 125.82% | Growth Percent M14 [30]: 74.54% | Growth Percent COLO 205 [31]: 111.54% | Growth Percent NCI/ADR-RES [32]: −2.53% | Growth Percent ACHN [33]: −94.31% | Growth Percent HCC-2998 [34]: −0.74% | Growth Percent K562 [35]: 49.61% | Growth Percent HL-60(TB) [36]: −21.77% | Growth Percent OVCAR-3 [37]: −15.47% | Growth Percent A549/ATCC [38]: 104.19% | Growth Percent HCT-15 [39]: 1.48% | Growth Percent HCT-116 [40]: −50.00% | Growth Percent MDA-MB-231/ATCC [41]: −17.33% | Growth Percent SK-MEL-28 [42]: 15.47% | Growth Percent U251 [43]: −89.26% | Growth Percent OVCAR-4 [44]: −94.43% | Growth Percent CCRF-CEM [45]: −30.81% | Growth Percent MOLT-4 [46]: −40.09% | Growth Percent SK-OV-3 [47]: 100.70% | Growth Percent SF-268 [48]: 16.29% | Growth Percent SK-MEL-5 [49]: 8.52% | Growth Percent MDA-MB-468 [50]: −73.17% | Growth Percent Delta ([51]; delta over all cell lines): 102.68% | Growth Percent Mean ([51]; mean over all cell lines): 2.68% | Growth Percent Range ([51]; range over all cell lines): 230.09% | Growth Percent HT29 [52]: 116.95% | Growth Percent T-47D [53]: −45.52% | Growth Percent NCI-H522 [54]: 77.41% | Growth Percent TK-10 [55]: 96.99% | Growth Percent OVCAR-5 [56]: −20.07% | Growth Percent LOX IMVI [57]: −50.63%
